From ChEMBL document CHEMBL4334516, “Kinase Chemodiversity from the Arctic: The Breitfussins” (J Med Chem, 2019)

What was measured:
[1] = target: T1, Serine/threonine-protein kinase 17B (Homo sapiens, UniProt O94768); test: Inhibition of Alexa Fluor 647-labeled ATP competitive kinase tracer binding to GST-tagged DRAK2 (unknown origin) by FRET based cell free ATP-competitive tracer displacement assay
T1 sequence (O94768 whole entry): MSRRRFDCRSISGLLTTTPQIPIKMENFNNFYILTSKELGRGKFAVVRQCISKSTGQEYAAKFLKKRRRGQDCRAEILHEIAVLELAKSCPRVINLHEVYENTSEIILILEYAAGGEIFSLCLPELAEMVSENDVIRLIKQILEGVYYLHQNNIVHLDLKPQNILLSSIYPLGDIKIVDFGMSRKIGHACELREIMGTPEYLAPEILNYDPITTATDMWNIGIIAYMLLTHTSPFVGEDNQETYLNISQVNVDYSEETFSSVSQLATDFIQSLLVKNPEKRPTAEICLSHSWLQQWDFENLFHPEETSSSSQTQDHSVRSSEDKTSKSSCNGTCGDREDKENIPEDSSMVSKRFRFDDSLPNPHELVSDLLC

MV4-11 = test: Cytotoxicity in human MV4-11 cells assessed as reduction in cell viability incubated for 72 hrs by MTS assay; type: functional, cell-based; conditions: MV4-11, 72 h
Aurora kinase A = target: T2, Aurora kinase A (Homo sapiens, UniProt O14965); test: Inhibition of Aurora A (unknown origin) by [33P]-ATP filter binding kinase assay
T2 sequence (O14965 whole entry): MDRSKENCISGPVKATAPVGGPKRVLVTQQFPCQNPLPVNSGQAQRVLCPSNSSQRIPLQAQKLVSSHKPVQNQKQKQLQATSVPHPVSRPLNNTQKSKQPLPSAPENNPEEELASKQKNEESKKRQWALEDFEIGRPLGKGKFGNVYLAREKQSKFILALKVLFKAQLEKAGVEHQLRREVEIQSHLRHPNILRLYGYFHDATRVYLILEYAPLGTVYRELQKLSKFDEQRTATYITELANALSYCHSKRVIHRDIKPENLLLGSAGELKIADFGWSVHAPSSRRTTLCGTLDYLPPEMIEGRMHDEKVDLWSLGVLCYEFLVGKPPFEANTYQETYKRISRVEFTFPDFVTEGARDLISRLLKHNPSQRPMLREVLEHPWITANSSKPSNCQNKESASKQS

[2] = target: T3, Mitogen-activated protein kinase kinase kinase kinase 2 (Homo sapiens, UniProt Q12851); test: Inhibition of GCK (unknown origin) by [33P]-ATP filter binding kinase assay
T3 sequence (Q12851 whole entry): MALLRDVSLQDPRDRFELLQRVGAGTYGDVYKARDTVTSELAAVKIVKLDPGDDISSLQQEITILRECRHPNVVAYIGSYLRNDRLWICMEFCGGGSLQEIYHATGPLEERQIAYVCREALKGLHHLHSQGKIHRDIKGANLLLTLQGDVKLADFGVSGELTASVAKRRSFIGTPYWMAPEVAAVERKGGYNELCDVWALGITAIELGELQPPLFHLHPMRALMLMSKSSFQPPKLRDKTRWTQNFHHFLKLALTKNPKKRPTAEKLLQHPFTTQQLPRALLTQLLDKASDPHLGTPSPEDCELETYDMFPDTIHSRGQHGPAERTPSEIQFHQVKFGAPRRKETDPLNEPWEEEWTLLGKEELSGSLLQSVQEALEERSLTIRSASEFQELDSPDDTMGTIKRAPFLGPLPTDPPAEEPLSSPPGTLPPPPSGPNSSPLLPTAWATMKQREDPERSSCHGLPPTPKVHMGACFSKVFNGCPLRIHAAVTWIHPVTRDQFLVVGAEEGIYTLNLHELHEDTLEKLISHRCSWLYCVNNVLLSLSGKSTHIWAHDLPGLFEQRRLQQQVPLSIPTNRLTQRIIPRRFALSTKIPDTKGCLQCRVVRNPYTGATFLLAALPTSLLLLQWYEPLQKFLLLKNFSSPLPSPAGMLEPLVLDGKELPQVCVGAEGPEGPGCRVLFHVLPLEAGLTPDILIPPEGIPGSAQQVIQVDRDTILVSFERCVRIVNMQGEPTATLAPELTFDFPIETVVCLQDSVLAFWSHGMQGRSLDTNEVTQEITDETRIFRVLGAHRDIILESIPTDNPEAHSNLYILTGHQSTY

[3] = target: Serine/threonine-protein kinase pim-1 (Homo sapiens, UniProt P11309); test: Inhibition of PIM1 (unknown origin) by [33P]-ATP filter binding kinase assay
Sequence of Serine/threonine-protein kinase pim-1 (P11309 whole entry): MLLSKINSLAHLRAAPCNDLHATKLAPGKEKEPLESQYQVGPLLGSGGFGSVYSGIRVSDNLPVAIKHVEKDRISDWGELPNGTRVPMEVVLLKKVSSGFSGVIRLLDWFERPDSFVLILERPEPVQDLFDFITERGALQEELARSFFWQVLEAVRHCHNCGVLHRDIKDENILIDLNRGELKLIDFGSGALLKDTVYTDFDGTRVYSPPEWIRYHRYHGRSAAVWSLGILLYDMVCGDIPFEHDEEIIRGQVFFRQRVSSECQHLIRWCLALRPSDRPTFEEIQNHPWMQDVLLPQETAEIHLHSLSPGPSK

Aurora kinase B = Aurora kinase B (Homo sapiens, UniProt Q96GD4); test: Inhibition of Aurora B (unknown origin) by [33P]-ATP filter binding kinase assay
Sequence of Aurora kinase B (Q96GD4 whole entry): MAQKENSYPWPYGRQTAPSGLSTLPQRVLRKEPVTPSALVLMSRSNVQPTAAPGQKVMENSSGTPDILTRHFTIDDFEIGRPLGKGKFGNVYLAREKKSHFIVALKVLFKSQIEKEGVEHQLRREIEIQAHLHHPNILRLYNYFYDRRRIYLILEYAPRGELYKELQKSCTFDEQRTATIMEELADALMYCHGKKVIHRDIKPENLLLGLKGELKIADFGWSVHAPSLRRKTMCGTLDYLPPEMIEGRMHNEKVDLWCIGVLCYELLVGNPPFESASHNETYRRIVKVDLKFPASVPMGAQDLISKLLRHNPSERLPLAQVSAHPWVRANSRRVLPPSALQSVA

MDA-MB-468 = test: Cytotoxicity in human MDA-MB-468 cells assessed as reduction in cell viability incubated for 72 hrs by MTS assay; type: functional, cell-based; conditions: MDA-MB-468, 72 h
[4] = target: T1, Serine/threonine-protein kinase 17B; test: Inhibition of DRAK2 (unknown origin) expressed in HEK293 cells by NanoLuc-luciferase reporter based intracellular ATP competitiveness assay; type: cell-based
MCF7 = test: Cytotoxicity in human MCF7 cells assessed as reduction in cell viability incubated for 72 hrs by MTS assay; type: functional, cell-based; conditions: MCF7, 72 h
A2058 = test: Cytotoxicity in human A2058 cells assessed as reduction in cell viability incubated for 72 hrs by MTS assay; type: functional, cell-based; conditions: A2058, 72 h
[5] = target: Mitogen-activated protein kinase kinase kinase 11 (Homo sapiens, UniProt Q16584); test: Inhibition of MLK3 (unknown origin) by [33P]-ATP filter binding kinase assay
Sequence of Mitogen-activated protein kinase kinase kinase 11 (Q16584 whole entry): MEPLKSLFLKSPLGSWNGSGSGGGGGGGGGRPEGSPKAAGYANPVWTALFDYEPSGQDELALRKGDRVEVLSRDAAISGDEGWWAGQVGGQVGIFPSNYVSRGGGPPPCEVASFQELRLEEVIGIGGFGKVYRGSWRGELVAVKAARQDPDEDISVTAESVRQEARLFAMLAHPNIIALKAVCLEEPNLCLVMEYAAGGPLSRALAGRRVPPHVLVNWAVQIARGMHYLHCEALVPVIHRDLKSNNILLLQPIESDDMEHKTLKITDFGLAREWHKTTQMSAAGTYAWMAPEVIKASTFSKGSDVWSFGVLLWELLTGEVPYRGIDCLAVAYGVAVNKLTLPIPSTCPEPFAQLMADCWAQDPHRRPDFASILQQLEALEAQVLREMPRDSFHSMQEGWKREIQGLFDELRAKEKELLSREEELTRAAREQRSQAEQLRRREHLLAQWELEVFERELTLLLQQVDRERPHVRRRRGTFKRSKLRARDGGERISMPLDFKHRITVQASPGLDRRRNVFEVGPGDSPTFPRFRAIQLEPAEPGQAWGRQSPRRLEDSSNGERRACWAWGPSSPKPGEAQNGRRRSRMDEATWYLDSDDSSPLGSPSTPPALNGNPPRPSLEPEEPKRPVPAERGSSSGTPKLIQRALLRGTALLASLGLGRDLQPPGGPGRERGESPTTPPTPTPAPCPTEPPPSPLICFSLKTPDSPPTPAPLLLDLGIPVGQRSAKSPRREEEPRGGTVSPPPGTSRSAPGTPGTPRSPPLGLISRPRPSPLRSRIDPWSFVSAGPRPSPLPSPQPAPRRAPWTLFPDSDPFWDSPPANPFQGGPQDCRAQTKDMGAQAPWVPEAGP

[6] = target: T4, Serine/threonine-protein kinase 17A (Homo sapiens, UniProt Q9UEE5); test: Inhibition of DRAK1 (unknown origin) expressed in HEK293 cells by NanoLuc-luciferase reporter based intracellular ATP competitiveness assay; type: cell-based
T4 sequence (Q9UEE5 whole entry): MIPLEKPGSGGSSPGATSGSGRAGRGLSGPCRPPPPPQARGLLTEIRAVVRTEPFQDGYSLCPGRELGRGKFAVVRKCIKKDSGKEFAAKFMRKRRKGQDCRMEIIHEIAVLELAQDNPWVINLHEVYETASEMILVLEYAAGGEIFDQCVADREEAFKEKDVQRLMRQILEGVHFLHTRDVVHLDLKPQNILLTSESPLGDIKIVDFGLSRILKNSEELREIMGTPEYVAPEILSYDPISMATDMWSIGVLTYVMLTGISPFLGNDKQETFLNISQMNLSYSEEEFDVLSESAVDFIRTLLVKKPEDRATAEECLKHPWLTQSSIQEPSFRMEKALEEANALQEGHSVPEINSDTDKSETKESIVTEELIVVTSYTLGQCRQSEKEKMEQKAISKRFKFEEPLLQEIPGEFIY

[7] = target: T4, Serine/threonine-protein kinase 17A; test: Inhibition of Alexa Fluor 647-labeled ATP competitive kinase tracer binding to GST-tagged DRAK1 (unknown origin) by FRET based cell free ATP-competitive tracer displacement assay
[8] = target: Dual specificity tyrosine-phosphorylation-regulated kinase 1A (Homo sapiens, UniProt Q13627); test: Inhibition of DYRK1A (unknown origin) by [33P]-ATP filter binding kinase assay

| IC50 [1] [µM] | IC50 (Aurora kinase A) [µM] | IC50 [2] [µM] | IC50 [3] [µM] | IC50 (Aurora kinase B) [µM] | IC50 [4] [µM] | IC50 [5] [µM] | IC50 [6] [µM] | IC50 [7] [µM] | IC50 [8] [µM] | SMILES | IC50 (MV4-11) [µM] | IC50 (MDA-MB-468) [µM] | IC50 (MCF7) [µM] | IC50 (A2058) [µM] |
| --- | --- | --- | --- | --- | --- | --- | --- | --- | --- | --- | --- | --- | --- | --- |
| > 10 | > 10 | > 10 | > 10 | > 10 | > 10 | > 10 | > 10 | > 10 | > 10 | COc1cc(Br)cc2[nH]cc(-c3oc(-c4ccc[nH]4)nc3I)c12 | > 10 | > 10 | > 10 | > 10 |
| > 10 | > 10 | 1.2 | 0.9 | 0.9 | 8.3 | 0.5 | > 10 | 9.6 | > 10 | COc1cc(Br)cc2[nH]cc(-c3cnc(-c4ccc[nH]4)o3)c12 | > 10 | > 10 | 3.9 | > 10 |
| > 10 | > 10 | > 10 | > 10 | > 10 | 3.3 | > 10 | > 10 | > 10 | > 10 | COc1cc(Br)cc2[nH]cc(-c3cnc(-c4ccc(Br)[nH]4)o3)c12 | > 10 | > 10 | > 10 | > 10 |

| SMILES | IC50 [1] [µM] | IC50 (Aurora kinase A) [µM] | IC50 [2] [µM] | IC50 [3] [µM] | IC50 (Aurora kinase B) [µM] | IC50 [4] [µM] | IC50 [5] [µM] | IC50 [6] [µM] | IC50 [7] [µM] | IC50 [8] [µM] | IC50 (MV4-11) [µM] | IC50 (MDA-MB-468) [µM] | IC50 (MCF7) [µM] | IC50 (A2058) [µM] |
| --- | --- | --- | --- | --- | --- | --- | --- | --- | --- | --- | --- | --- | --- | --- |
| COc1cc2c(-c3cnc(-c4ccc[nH]4)o3)c[nH]c2cc1Br | 9.8 | 22 | 0.6 | 0.2 | 0.8 | 0.5 | 0.6 | – | – | – | 4.4 | > 10 | 8.5 | > 10 |
